Data taken from PubChem BioAssay (NCI).
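Tested at 5 concentrations; 48 h exposure; 96-well plates; endpoints linearly interpolated, else capped at highest concentration. TGI is the concentration that stops growth completely.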

Tests used:
Assay in all cases: NCI tumour cell line growth inhibition, 48 h
[1] = test system: A498 renal
[2] = test system: A549 NSCLC
[3] = test system: ACHN renal
[4] = test system: BT-549 breast
[5] = test system: CAKI-1 renal
[6] = test system: CCRF-CEM leukemia
[7] = test system: COLO 205 colon
[8] = test system: DU-145 prostate
[9] = test system: EKVX NSCLC
[10] = test system: HCC-2998 colon
[11] = test system: HCT-116 colon
[12] = test system: HCT-15 colon
[13] = test system: HL-60(TB) leukemia
[14] = test system: HOP-62 NSCLC
[15] = test system: HOP-92 NSCLC
[16] = test system: HS 578T breast
[17] = test system: HT29 colon
[18] = test system: IGROV1 ovarian
[19] = test system: K-562 leukemia
[20] = test system: KM12 colon
[21] = test system: LOX IMVI melanoma
[22] = test system: M14 melanoma
[23] = test system: MALME-3M melanoma
[24] = test system: MCF7 breast
[25] = test system: MDA-MB-231 breast
[26] = test system: MDA-MB-435
[27] = test system: MDA-N
[28] = test system: MOLT-4 leukemia
[29] = test system: NCI-H226 lung
[30] = test system: NCI-H23 lung
[31] = test system: NCI-H460 lung
[32] = test system: NCI-H522 lung
[33] = test system: NCI/ADR-RES ovarian
[34] = test system: OVCAR-3 ovarian
[35] = test system: OVCAR-4 ovarian
[36] = test system: OVCAR-5 ovarian
[37] = test system: OVCAR-8 ovarian
[38] = test system: PC-3 prostate
[39] = test system: RPMI-8226 leukemia
[40] = test system: RXF 393 renal
[41] = test system: SF-268 CNS
[42] = test system: SF-295 CNS
[43] = test system: SF-539 CNS
[44] = test system: SK-MEL-2 melanoma
[45] = test system: SK-MEL-28 melanoma
[46] = test system: SK-MEL-5 melanoma
[47] = test system: SK-OV-3 ovarian
[48] = test system: SN12C renal
[49] = test system: SNB-19 CNS
[50] = test system: SNB-75 CNS
[51] = test system: SR leukemia
[52] = test system: SW-620 colon
[53] = test system: T-47D breast
[54] = test system: TK-10 renal
[55] = test system: U251 CNS
[56] = test system: UACC-257 melanoma
[57] = test system: UACC-62 melanoma
[58] = test system: UO-31 renal

## CC(=O)OCC1OC(n2c(-c3ccc(C)cc3)cc(-c3ccco3)c(C#N)c2=S)C(OC(C)=O)C(OC(C)=O)C1OC(C)=O (stereo not drawn)
[1]
  TGI: > 100 µM
[2]
  TGI: > 100 µM
[3]
  TGI: > 100 µM
[4]
  TGI: > 100 µM
[5]
  TGI: > 100 µM
[6]
  TGI: > 100 µM
[7]
  TGI: > 100 µM
[8]
  TGI: > 100 µM
[9]
  TGI: > 100 µM
[10]
  TGI: > 100 µM
[11]
  TGI: > 100 µM
[12]
  TGI: > 100 µM
[13]
  TGI: > 100 µM
[14]
  TGI: > 100 µM
[15]
  TGI: 81.1 µM
[16]
  TGI: > 100 µM
[17]
  TGI: > 100 µM
[18]
  TGI: > 100 µM
[19]
  TGI: > 100 µM
[20]
  TGI: > 100 µM
[21]
  TGI: > 100 µM
[22]
  TGI: > 100 µM
[23]
  TGI: > 100 µM
[24]
  TGI: > 100 µM
[25]
  TGI: 78.4 µM
[26]
  TGI: > 100 µM
[27]
  TGI: > 100 µM
[28]
  TGI: > 100 µM
[29]
  TGI: > 100 µM
[30]
  TGI: > 100 µM
[31]
  TGI: > 100 µM
[32]
  TGI: > 100 µM
[33]
  TGI: > 100 µM
[34]
  TGI: > 100 µM
[35]
  TGI: > 100 µM
[36]
  TGI: > 100 µM
[37]
  TGI: > 100 µM
[38]
  TGI: > 100 µM
[39]
  TGI: > 100 µM
[40]
  TGI: > 100 µM
[41]
  TGI: > 100 µM
[42]
  TGI: > 100 µM
[43]
  TGI: 36.1 µM
[44]
  TGI: > 100 µM
[45]
  TGI: > 100 µM
[46]
  TGI: > 100 µM
[47]
  TGI: > 100 µM
[48]
  TGI: > 100 µM
[49]
  TGI: > 100 µM
[50]
  TGI: > 100 µM
[51]
  TGI: > 100 µM
[52]
  TGI: > 100 µM
[53]
  TGI: > 100 µM
[54]
  TGI: > 100 µM
[55]
  TGI: > 100 µM
[56]
  TGI: > 100 µM
[57]
  TGI: 45.2 µM
[58]
  TGI: > 100 µM
